{
  "source": "patent US12442035B2",
  "about": "“Compositions and methods for detecting antibiotic responsive mRNA expression signatures and uses thereof” (THE BROAD INSTITUTE, INC., priority 2018, dated 2025)",
  "key": {"[1]": {"test_system": "K. pneumoniae clinical isolates", "test": "Standard broth microdilution MIC", "type": "cell-based, Klebsiella pneumoniae", "description": "(§3) All strains in this study (Table 7) were obtained from clinical or reference microbiological laboratories, including both local hospitals and MDRO strain collections from the Centers for Disease Control's Antibiotic Resistance Isolate Bank (see e.g., World Wide Web at (www).cdc.gov/ARIsolateBank/) and the New York State Department of Health."}, "[2]": {"test_system": "E. coli clinical isolates", "test": "Standard broth microdilution MIC", "type": "cell-based, Escherichia coli", "description": "as §3"}, "[3]": {"test_system": "A. baumannii clinical isolates", "test": "Standard broth microdilution MIC", "type": "cell-based, Acinetobacter baumannii", "description": "as §3"}, "[4]": {"test_system": "K. pneumoniae clinical isolates", "test": "RNA-Seq transcriptional response to antibiotic exposure, GO term enrichment", "type": "cell-based, Klebsiella pneumoniae", "details": "CLSI breakpoint concentration, 0, 10, 30, 60 minutes", "from_the_text": "(§1) Fisher's combined probability test was used to select only those genes whose expression after antibiotic treatment was statistically distinguishable from its expression at any timepoint in the untreated samples. Gene ontology (GO) terms were assigned using blast2GO (version 1.4.4), with hypergeometric testing for enrichment. For each pathogen-antibiotic pair, the fold-change threshold in DESeq2 used to test statistical significance was increased to select 60-100 antibiotic-responsive transcripts with maximal stringency, a number readily accommodated by the NanoString® assay format. […] As with responsive genes, the fold-change threshold was varied in order to select the top 10-20 control transcripts. […] See Supplemental Methods sections below for further details.\n(§2) After antibiotic treatment as described in the above Materials and Methods section, cells were pelleted, resuspended in 0.5 mL Trizol reagent (ThermoFisher Scientific), transferred to 1.5 mL screw-cap tubes containing 0.25 mL of 0.1 mm diameter Zirconia/Silica beads (BioSpec Products), and lysed mechanically via bead-beating for 3-5 one-minute cycles on a Minibeadbeater-16 (BioSpec) or one 90-second cycle at 10 m/sec on a FastPrep (MP Bio). After addition of 0.1 mL chloroform, each sample tube was mixed thoroughly by inversion, incubated for 3 minutes at room temperature, and centrifuged at 12,000×g for 15 minutes at 4° C. […]"}, "[5]": {"test_system": "E. coli clinical isolates", "test": "RNA-Seq transcriptional response to antibiotic exposure, GO term enrichment", "type": "cell-based, Escherichia coli", "details": "CLSI breakpoint concentration, 0, 10, 30, 60 minutes"}, "[6]": {"test_system": "A. baumannii clinical isolates", "test": "RNA-Seq transcriptional response to antibiotic exposure, GO term enrichment", "type": "cell-based, Acinetobacter baumannii", "details": "CLSI breakpoint concentration, 0, 10, 30, 60 minutes", "from_the_text": "as §1, §2"}},
  "data": [
    {"substance": "gentamicin", "values": [
      {"measurement": "gent MIC", "setting": "[1]; KpGent strain AR0042", "result": 32, "unit": "µg/mL"},
      {"measurement": "gent MIC", "setting": "[1]; KpGent strain AR0043", "result": 1, "unit": "µg/mL"},
      {"measurement": "gent MIC", "setting": "[1]; KpGent strain AR0076", "result": 32, "unit": "µg/mL"},
      {"measurement": "gent MIC", "setting": "[1]; KpGent strain AR0080", "result": 2, "unit": "µg/mL"},
      {"measurement": "gent MIC", "setting": "[1]; KpGent strain ATCC 700721", "result": ">32", "unit": "µg/mL"},
      {"measurement": "gent MIC", "setting": "[1]; KpGent strain BAC0800007138", "result": 0.5, "unit": "µg/mL"},
      {"measurement": "gent MIC", "setting": "[1]; KpGent strain BIDMC_2A", "result": 2, "unit": "µg/mL"},
      {"measurement": "gent MIC", "setting": "[1]; KpGent strain BIDMC_34", "result": 32, "unit": "µg/mL"},
      {"measurement": "gent MIC", "setting": "[1]; KpGent strain BIT-10", "result": 4, "unit": "µg/mL"},
      {"measurement": "gent MIC", "setting": "[1]; KpGent strain BWH_15", "result": 4, "unit": "µg/mL"},
      {"measurement": "gent MIC", "setting": "[1]; KpGent strain IDR1600031102-01-00", "result": ">32", "unit": "µg/mL"},
      {"measurement": "gent MIC", "setting": "[1]; KpGent strain IDR1600039511-01-00", "result": 0.5, "unit": "µg/mL"},
      {"measurement": "gent MIC", "setting": "[1]; KpGent strain MGH_30", "result": 1, "unit": "µg/mL"},
      {"measurement": "gent MIC", "setting": "[1]; KpGent strain MGH_35", "result": ">16", "unit": "µg/mL"},
      {"measurement": "gent MIC", "setting": "[1]; KpGent strain MGH_63", "result": ">16", "unit": "µg/mL"},
      {"measurement": "gent MIC", "setting": "[1]; KpGent strain RB012", "result": 32, "unit": "µg/mL"},
      {"measurement": "gent MIC", "setting": "[1]; KpGent strain RB040", "result": 0.5, "unit": "µg/mL"},
      {"measurement": "gent MIC", "setting": "[1]; KpGent strain RB042", "result": 2, "unit": "µg/mL"},
      {"measurement": "gent MIC", "setting": "[1]; KpGent strain RB121", "result": 1, "unit": "µg/mL"},
      {"measurement": "gent MIC", "setting": "[1]; KpGent strain RB122", "result": 128, "unit": "µg/mL"},
      {"measurement": "gent MIC", "setting": "[1]; KpGent strain UCI_7", "result": 0.5, "unit": "µg/mL"},
      {"measurement": "gent MIC", "setting": "[1]; KpGent strain UCI_13", "result": 0.5, "unit": "µg/mL"},
      {"measurement": "gent MIC", "setting": "[1]; KpGent strain UCI_37", "result": 16, "unit": "µg/mL"},
      {"measurement": "gent MIC", "setting": "[1]; KpGent strain UCI_63", "result": 4, "unit": "µg/mL"},
      {"measurement": "gent MIC", "setting": "[1]; KpGent strain UCI_67", "result": 8, "unit": "µg/mL"},
      {"measurement": "gent MIC", "setting": "[2]; E. coli strain AR0055", "result": 64, "unit": "µg/mL"},
      {"measurement": "gent MIC", "setting": "[2]; E. coli strain AR0061", "result": 32, "unit": "µg/mL"},
      {"measurement": "gent MIC", "setting": "[2]; E. coli strain AR0081", "result": 0.5, "unit": "µg/mL"},
      {"measurement": "gent MIC", "setting": "[2]; E. coli strain AR0084", "result": 0.5, "unit": "µg/mL"},
      {"measurement": "gent MIC", "setting": "[2]; E. coli strain AR0085", "result": 2, "unit": "µg/mL"},
      {"measurement": "gent MIC", "setting": "[2]; E. coli strain BAA2469", "result": 64, "unit": "µg/mL"},
      {"measurement": "gent MIC", "setting": "[2]; E. coli strain BAC0800005647", "result": 1, "unit": "µg/mL"},
      {"measurement": "gent MIC", "setting": "[2]; E. coli strain IDR1300027657", "result": 64, "unit": "µg/mL"},
      {"measurement": "gent MIC", "setting": "[2]; E. coli strain IDR1300034680", "result": 1, "unit": "µg/mL"},
      {"measurement": "gent MIC", "setting": "[2]; E. coli strain IDR1600047120", "result": 64, "unit": "µg/mL"},
      {"measurement": "gent MIC", "setting": "[2]; E. coli strain MGH_57", "result": 0.5, "unit": "µg/mL"},
      {"measurement": "gent MIC", "setting": "[2]; E. coli strain RB001 (deriv_S)", "result": 1, "unit": "µg/mL"},
      {"measurement": "gent MIC", "setting": "[2]; E. coli strain RB051 (deriv_R)", "result": 256, "unit": "µg/mL"},
      {"measurement": "gent MIC", "setting": "[2]; E. coli strain RB057 (deriv_R)", "result": 256, "unit": "µg/mL"},
      {"measurement": "gent MIC", "setting": "[2]; E. coli strain RB075 (deriv_S)", "result": 0.5, "unit": "µg/mL"},
      {"measurement": "gent MIC", "setting": "[2]; E. coli strain RB765", "result": 64, "unit": "µg/mL"},
      {"measurement": "gent MIC", "setting": "[2]; E. coli, printed on the continuation line of strain RB075, above RB076, strain unclear", "result": 1, "unit": "µg/mL"},
      {"measurement": "gent MIC", "setting": "[3]; A. baumannii strain AR0033", "result": 32, "unit": "µg/mL"},
      {"measurement": "gent MIC", "setting": "[3]; A. baumannii strain AR0035", "result": 16, "unit": "µg/mL"},
      {"measurement": "gent MIC", "setting": "[3]; A. baumannii strain AR0037", "result": ">32", "unit": "µg/mL"},
      {"measurement": "gent MIC", "setting": "[3]; A. baumannii strain AR0045", "result": ">32", "unit": "µg/mL"},
      {"measurement": "gent MIC", "setting": "[3]; A. baumannii strain AR0052", "result": 32, "unit": "µg/mL"},
      {"measurement": "gent MIC", "setting": "[3]; A. baumannii strain AR0056", "result": ">32", "unit": "µg/mL"},
      {"measurement": "gent MIC", "setting": "[3]; A. baumannii strain AR0063", "result": 4, "unit": "µg/mL"},
      {"measurement": "gent MIC", "setting": "[3]; A. baumannii strain AR0070", "result": ">32", "unit": "µg/mL"},
      {"measurement": "gent MIC", "setting": "[3]; A. baumannii strain AR0078", "result": ">32", "unit": "µg/mL"},
      {"measurement": "gent MIC", "setting": "[3]; A. baumannii strain AR0101", "result": 8, "unit": "µg/mL"},
      {"measurement": "gent MIC", "setting": "[3]; A. baumannii strain AR0102", "result": ">32", "unit": "µg/mL"},
      {"measurement": "gent MIC", "setting": "[3]; A. baumannii strain ATCC 17978", "result": "≤0.5", "unit": "µg/mL"},
      {"measurement": "gent MIC", "setting": "[3]; A. baumannii strain RB197 (deriv_S)", "result": "≤0.5", "unit": "µg/mL"},
      {"measurement": "gent MIC", "setting": "[3]; A. baumannii strain RB198", "result": 32, "unit": "µg/mL"},
      {"measurement": "gent MIC", "setting": "[3]; A. baumannii strain RB200 (deriv_R)", "result": ">32", "unit": "µg/mL"},
      {"measurement": "gent MIC", "setting": "[3]; A. baumannii strain RB201", "result": 1, "unit": "µg/mL"},
      {"measurement": "gent MIC", "setting": "[3]; A. baumannii strain RB202", "result": ">32", "unit": "µg/mL"},
      {"measurement": "gent MIC", "setting": "[3]; A. baumannii strain RB203", "result": 4, "unit": "µg/mL"},
      {"measurement": "gent MIC", "setting": "[3]; A. baumannii strain RB204 (deriv_R)", "result": ">32", "unit": "µg/mL"},
      {"measurement": "gent MIC", "setting": "[3]; A. baumannii strain RB205 (deriv_S)", "result": 2, "unit": "µg/mL"},
      {"measurement": "gent MIC", "setting": "[3]; A. baumannii strain RB206", "result": ">32", "unit": "µg/mL"},
      {"measurement": "Gene ontology enrichment of antibiotic-responsive transcripts", "setting": "[4]", "result": "induced the unfolded protein response and quinone binding"},
      {"measurement": "Gene ontology enrichment of antibiotic-responsive transcripts", "setting": "[5]", "result": "induced the unfolded protein response and quinone binding"},
      {"measurement": "Gene ontology enrichment of antibiotic-responsive transcripts", "setting": "[6]", "result": "induced the unfolded protein response and quinone binding"}
    ]}
  ]
}
